Test results reported in patent publication US20140011889A1, “Resveratrol-Containing Compositions and Methods of Use for Cardiac-Related Diseases” (Resveratrol Partners, LLC, priority 2010, published 2014).

How the values were obtained:
[1] = tested on: biological processes (GO), cardiac tissue; test: Biological processes (GO) affected by altered gene expression in cardiac tissue; type: in vivo, mice
cardiomyocytes = test: Cardiomyocyte apoptosis, TUNEL (Example 6); type: in vivo, Sprague-Dawley rats
Description: Cardiomyocyte apoptosis. Immunochemical detection of apoptotic cells was performed using the terminal deoxynucleotidyl transferase-medicated dUTP nick-end labeling (TUNEL) method. Malik et al. […] The sections were incubated with mouse monoclonal antibody recognizing cardiac myosin heavy chain to specifically detect apoptotic cardiomyocytes. The fluorescence staining was viewed with a confocal laser microscope. The number of apoptotic cells was counted and expressed as a percent of the total myocyte population. At the end of each experiment the hearts were either subjected to TTC staining to determine infarct size or TUNEL staining to detect apoptosis.

IR rat heart = test: Isolated working rat heart I/R: cardiac function, infarct size, apoptosis (Example 7); type: in vivo, Sprague-Dawley rats; conditions: resveratrol 5 mg/kg/day or Longevinex 100 mg/kg/day, 21 days
Description: Methods. Animals. […] Hattori et al., Am. J. Physiol. Heart. Circ. […] Mukherjee et al., Can. J. Pharmol. […] Isolated working heart preparation and assessment of cardiac function. After completing the feeding protocol, the animals were anesthetized with sodium pentobarbital (80 mg/kg, i.p.) (Abbott Laboratories, North Chicago, Ill., USA), and […] heparin sodium (500 IU/kg, i.v.) (Elkins-Sinn Inc., Cherry Hill, N.J., USA) was used as an anticoagulant. […] At the end of 10 min, baseline cardiac function like heart rate (HR, beats/min), aortic flow (AF, ml/min), coronary flow (CF, ml/min), left ventricular developed pressure (LVDP, mmHg) and first derivative of developed pressure (LVdp/dt, mmHg/sec) were recorded. […] Infarct size was measured according to the TTC method. […] To quantitate the areas of infarct in pixels, standard NIH image program was used. The infarct size was quantified and expressed in pixels. […] The fluorescence staining was viewed with a fluorescence microscope (AXIOPLAN2 IMAGING, Carl Zeiss Microimaging Inc., New York) at […] for green fluorescence of fluorescein and at 620 nm for red fluorescence of propidium iodide. The number of apoptotic cells was counted and expressed as a percent of total myocyte population.

With Oc1ccc(/C=C/c2cc(O)cc(O)c2)cc1 [resveratrol, 3,4′,5-trihydroxy-trans-stilbene] the “genes changed, GO: 0006596 Polyamine Biosynthetic Process” value ([1]; 5 genes in series) was 2, the “genes changed, GO: 0006625 Protein Targeting To Peroxisome” value ([1]; 5 genes in series) was 2 and the “genes changed, GO: 0006983 ER Overload Response” value ([1]; 5 genes in series) was 2. For the same compound, the “genes changed, GO: 0006353 Transcription Termination” value ([1]; 6 genes in series) was 2, the “genes changed, GO: 0045351 Interferon Type I Biosynthetic Process” value ([1]; 6 genes in series) was 2 and the “genes changed, GO: 0001958 Endochondral Ossification” value ([1]; 8 genes in series) was 2. The “genes changed, GO: 0007091 Mitotic Metaphase/Anaphase Transition” value ([1]; 8 genes in series) was 2, the “genes changed, GO: 0007143 Female Meiosis” value ([1]; 8 genes in series) was 2 and the “genes changed, GO: 0045577 Regulation Of B Cell Differentiation” value ([1]; 8 genes in series) was 2. For the same compound, the “genes changed, GO: 0046330 Positive Regulation Of JNK Cascade” value ([1]; 8 genes in series) was 2, the “genes changed, GO: 0006825 Copper Ion Transport” value ([1]; 9 genes in series) was 3 and the “genes changed, GO: 0033554 Cellular Response To Stress” value ([1]; 14 genes in series) was 3. For the same compound, the “genes changed, GO: 0006888 ER To Golgi Vesicle-Mediated Transport” value ([1]; 16 genes in series) was 3, the “genes changed, GO: 0006919 Caspase Activation” value ([1]; 16 genes in series) was 3 and the “genes changed, GO: 0000723 Telomere Maintenance” value ([1]; 17 genes in series) was 3. The “genes changed, GO: 0030041 Actin Filament Polymerization” value ([1]; 17 genes in series) was 3, the “genes changed, GO: 0043280 Positive Regulation Of Caspase Activity” value ([1]; 17 genes in series) was 3 and the “genes changed, GO: 0051016 Barbed-End Actin Filament Capping” value ([1]; 17 genes in series) was 3. The “genes changed, GO: 0008299 Isoprenoid Biosynthetic Process” value ([1]; 19 genes in series) was 3, the “genes changed, GO: 0006446 Regulation Of Translational Initiation” value ([1]; 20 genes in series) was 4 and the “genes changed, GO: 0043281 Regulation Of Caspase Activity” value ([1]; 27 genes in series) was 5. The “genes changed, GO: 0008064 Regulation Of Actin Polymerization And/Or Depolymerization” value ([1]; 30 genes in series) was 4, the “genes changed, GO: 0050673 Epithelial Cell Proliferation” value ([1]; 30 genes in series) was 4 and the “genes changed, GO: 0005977 Glycogen Metabolic Process” value ([1]; 31 genes in series) was 7. For the same compound, the “genes changed, GO: 0030832 Regulation Of Actin Filament Length” value ([1]; 31 genes in series) was 4, the “genes changed, GO: 0051258 Protein Polymerization” value ([1]; 32 genes in series) was 6 and the “genes changed, GO: 0006112 Energy Reserve Metabolic Process” value ([1]; 35 genes in series) was 7. The “genes changed, GO: 0048193 Golgi Vesicle Transport” value ([1]; 37 genes in series) was 6, the “genes changed, GO: 0008154 Actin Polymerization And/Or Depolymerization” value ([1]; 39 genes in series) was 6 and the “genes changed, GO: 0006413 Translational Initiation” value ([1]; 40 genes in series) was 6. For the same compound, the “genes changed, GO: 0043085 Positive Regulation Of Enzyme Activity” value ([1]; 40 genes in series) was 5, the “genes changed, GO: 0045454 Cell Redox Homeostasis” value ([1]; 40 genes in series) was 6 and the “genes changed, GO: 0005976 Polysaccharide Metabolic Process” value ([1]; 42 genes in series) was 9. For the same compound, the “genes changed, GO: 0007018 Microtubule-Based Movement” value ([1]; 72 genes in series) was 9, the “genes changed, GO: 0007178 Transmembrane Receptor Protein Serine/Threonine Kinase Signaling Pathway” value ([1]; 75 genes in series) was 7 and the “genes changed, GO: 0006511 Ubiquitin-Dependent Protein Catabolic Process” value ([1]; 109 genes in series) was 9. The “genes changed, GO: 0019941 Modification-Dependent Protein Catabolic Process” value ([1]; 111 genes in series) was 9, the “genes changed, GO: 0006457 Protein Folding” value ([1]; 124 genes in series) was 13 and the “genes changed, GO: 0007017 Microtubule-Based Process” value ([1]; 155 genes in series) was 12. The “genes changed, GO: 0006605 Protein Targeting” value ([1]; 161 genes in series) was 12, the “genes changed, GO: 0008380 RNA Splicing” value ([1]; 162 genes in series) was 12 and the “genes changed, GO: 0006281 DNA Repair” value ([1]; 178 genes in series) was 13. The “genes changed, GO: 0006974 Response To DNA Damage Stimulus” value ([1]; 217 genes in series) was 15, the “genes changed, GO: 0044262 Cellular Carbohydrate Metabolic Process” value ([1]; 221 genes in series) was 18 and the “genes changed, GO: 0050790 Regulation Of Catalytic Activity” value ([1]; 241 genes in series) was 21. The “genes changed, GO: 0005975 Carbohydrate Metabolic Process” value ([1]; 316 genes in series) was 21, the “genes changed, GO: 0007264 Small Gtpase Mediated Signal Transduction” value ([1]; 320 genes in series) was 22 and the “genes changed, GO: 0006412 Translation” value ([1]; 338 genes in series) was 25. The “genes changed, GO: 0006512 Ubiquitin Cycle” value ([1]; 356 genes in series) was 27, the “genes changed, GO: 0006886 Intracellular Protein Transport” value ([1]; 357 genes in series) was 26 and the “genes changed, GO: 0006091 Generation Of Precursor Metabolites And Energy” value ([1]; 390 genes in series) was 24. For the same compound, the “genes changed, GO: 0007010 Cytoskeleton Organization And Biogenesis” value ([1]; 403 genes in series) was 26, the “genes changed, GO: 0046907 Intracellular Transport” value ([1]; 523 genes in series) was 43 and the “genes changed, GO: 0009059 Macromolecule Biosynthetic Process” value ([1]; 525 genes in series) was 35. The “genes changed, GO: 0015031 Protein Transport” value ([1]; 581 genes in series) was 38, the “genes changed, GO: 0045184 Establishment Of Protein Localization” value ([1]; 610 genes in series) was 38 and the “genes changed, GO: 0051649 Establishment Of Cellular Localization” value ([1]; 653 genes in series) was 45. The “genes changed, GO: 0008104 Protein Localization” value ([1]; 663 genes in series) was 38, the “genes changed, GO: 0044249 Cellular Biosynthetic Process” value ([1]; 710 genes in series) was 45 and the “genes changed, GO: 0006996 Organelle Organization And Biogenesis” value ([1]; 897 genes in series) was 53. The “genes changed, GO: 0009058 Biosynthetic Process” value ([1]; 979 genes in series) was 60, the “share of the 220 biological processes with affected genes, calorie restricted mice” value ([1]; mouse cardiac tissue) was “failed to affect any genes in any of these processes” and the cardiomyocyte apoptosis (cardiomyocytes; 2.5 and 25 mg/kg) was “significantly reduced”. The “number of apoptotic cardiomyocytes” value (cardiomyocytes; above 50 mg/kg) was “significant increased”, the “cardiac output function (aortic flow, coronary flow, LVDP, LVmax dp/dt)” value (IR rat heart; 2 hour reperfusion) was “improved” and the “myocardial infarct size and cardiomyocyte apoptosis” value (IR rat heart; 2 h reperfusion) was “reduce”.
